Series [1] concerns C57B16/Ola male mice. Nature of the series: Novel arena test, freezing response episodes (AnyMaze). The class given is in vivo. The settings on record: potassium bromide 250 mg/L in drinking water for 7 days, vs normal drinking water. The protocol:
Animals were placed in the centre of an open arena which was unfamiliar to them and their rate and range of movement tracked by digital recognition software. Distance, speed and time spent immobile were analysed using the AnyMaze™ software. Results were compared statistically using SPSS™.

Series [2] is described as follows: Weight gain of Merino ewe lambs after mulesing and tail docking. The class given is in vivo.
For series [3] the following is noted: horse (Raidal and Edwards, 2008); cited from earlier work.
For series [4] the following is noted: sheep, 120 mg/kg. The protocol:
(§1) NaBr solution was administered through the cephalic vein using a 21 gauge needle over a period of 1 minute. Sheep were restrained in a seated position. Blood samples were collected at 0, 1, 5, 10, 15, 20 and 30 min and then at 1, 2, 3, 4, 6, 8, 10, 12, 24 h. Samples thereafter were collected at 12 h intervals to 240 h then at 24 h intervals to 336 h. A final sample was taken at 528 h. For each sample, the initial 2 mL of blood collected was discarded and a sterile syringe used to withdraw 5 mL of blood which was then placed into a plain separator blood tube (Vacuette: Greiner Bio-one). The cannulas were flushed with 3 mL of 5% heparinised saline after each collection. Each blood sample was left to stand for 30 min before centrifugation at 2000 g for 5 min. Serum was harvested and stored at −20° C. until analysis.
(§2) KBr solution was administered via an orogastric tube, then flushed with 500 mL water. Blood samples were collected at 0, 1, 2, 3, 4, 6, 8, 10, 12, 24 h, then at 12 h intervals to 240 h, then at 24 h intervals to 336 h. A final sample was taken at 504 h. When collecting blood samples at 1 h through to 10 h the rumen was auscultated, over the caudo-dorsal blind sack, to determine if the high salt load affected rumen motility.

A short description of series [5]: Weight gain under mildly stressful management conditions. The class given is in vivo, mice. The following applies: potassium bromide 250 mg/L in drinking water, 7 days, mild stress, vs control. The procedure:
(§3) A model system was established to induce stress in rodents by repeated behavioural testing using the AnyMaze™ rodent behavioural monitoring system. […] At the end of 7 days animals were subjected to a number of behavioural tests to assess level of stress. Weight gain was also analysed in the treatment group by recording body weight over the initial 7 day period.
(§4) C57B16/Ola male mice at 5 weeks of age were purchased from MAS Client Services, Monash University, Melbourne, Australia. Animals were weighed at the start of the test period and daily for the duration of testing.
(§5) Animals were weighed 3 times during the experiment (7 days). To initiate a mildly stressful situation, animals were exposed to novel arena, parallel rod and tremor tests using the mouse AnyMaze™ system (AnyMaze™, Stoelting, U.S.A.).

For series [6] the following is noted: sheep. The procedure: as §1, §2
Absorbance was measured with a spectrophotometer at 440 nm.

The conditions of series [7]: Podell and Fenner, 1993; cited from earlier work.
The subject of series [8] is C57B16/Ola male mice. The following applies: potassium bromide 250 mg/L in drinking water for 7 days. The procedure:
as §3, §4, §5

For series [9] the following is noted: cited from earlier work.
The mark [10] stands for this setting: 300 mg/kg LW oral bromide immediately prior to procedure, n=20.

The values below come from patent US11582989B2, “Stress management in livestock” (Charles Sturt University, priority 2013, dated 2023).

Molecules are shown by their SMILES. Where two headings read alike, the source gives them in different places.

For the molecule `Br` [bromide], in the series with C57B16/Ola male mice [1], the “freezing response episodes in novel arena test” value is listed as “trend towards decreased freezing response episodes”. Further, the “mean weight gain between day 7 and 14” value in series [2] (300 mg/kg LW oral bromide) was determined as 1.80 ± 0.30 kg. Moreover, in series [2] (setting [10]), the “mean live weight on day 51” value is 22.17 ± 0.86 kg and the “mean weight gain after 51 days” value is 8.52 ± 0.57 kg. Also, the “Day 1-7 mean weight change” value in series [2] (300 mg/kg LW oral bromide, first seven days) was -0.564 ± 1.29 kg. The “weight gain compared to untreated counterparts” value in series [2] (300 mg/kg LW oral, after 14 days) is reported as “enhanced weight gain”. Also, the live weight gain in series [2] (over 51 days) was 0.16 kg per head per day. Also, the “weight gain per head per day” value in series [2] (over the 51 days of the trial) is recorded as 0.57. For the same molecule, the “increase in production gain” value in series [2] (vs control, over 51 days) is on record as 11%. Also, in series [3], the estimated bioavailability is recorded as 32-38% and the t½ entry was “approximately 3 d”. Moreover, the adverse reactions result in series [4] (IV and PO groups) is “No adverse reactions were noted”. In series [4] (IV), the “duration of tranquilising effect post-injection” value fell in the range of 1 to 2 h and the “tranquilising effect (subjective observation)” value is given as “mild tranquilising effect”. For the same molecule, the neurological effects result in series [4] (PO group) is listed as “no discernable neurological effects”. In addition, the rumen motility entry in series [4] (PO group, auscultated 1 h to 10 h) was “no observed alteration in rumen motility”. For the same molecule, in [5], the weight gain entry is on record as “increased weight gain”. Further, in [6] (IV), the t½ came out at 16.2 days. In series [6] (PO), the “absorption following PO administration” value was “absorbed rapidly” and the “half-life (t½)” value is reported as “approximately 14 days”. In addition, the “serum Br concentration range” value in series [6] (PO 120 mg/kg, for 14 d) was 200 to 400 mg/L. Besides, the “anticonvulsant range (Br concentration)” value in series [7] is 1.0 to 2.0 mg/mL. Moreover, in the series with C57B16/Ola male mice [8], the signs of ataxia result was “no signs of ataxia”. Further, the parallel rod touches result in the series with C57B16/Ola male mice [8] (vs normal drinking water) is given as “significantly more touches”. For the same molecule, the t½ in [9] (dog (Trepanier and Babish, 1995)) is 12 to 24 days. For the same molecule, in series [9] (dog (Trepanier and Babish, 1995b)), the bioavailability is on record as 40%.
With `[Br-].[K+]` [potassium bromide], the “freezing response episodes in novel arena test” value in the series with C57B16/Ola male mice [1] is given as “trend was towards decreased freezing episodes”. In addition, in [2] (300 mg/kg LW oral at time of mulesing and tail docking, over 51 days), the “weight gain compared to untreated counterparts” value is recorded as “trend towards increased weight gain”. Moreover, in [5], the weight gain result was “significant weight gain”.
